Values joined by “and” are separate entries in the source; they are usually repeats but may differ in a detail not shown here. Equal entries are not always repeated.
How the values were obtained:
Assay type in all cases: cell-based
[1] = test system: PATU-8902 FKBP12^F36V-KRAS^G12V; KRAS^-/- clone; assay: Antiproliferation, PATU-8902 FKBP12F36V-KRASG12V; KRAS-/- clone, 2D-monolayer (CellTiter-Glo)
[2] = test system: PATU-8902 LACZ-FKBP12^F36V clone; assay: Antiproliferation, PATU-8902 LACZ-FKBP12F36V clone, 3D-spheroid (CellTiter-Glo); settings: 120 h
In short: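 Viability of cells grown as ultra-low adherent 3D-spheroids was determined with the CellTiter-Glo reagent (Promega). Luminescence was read on either an Envision 2104 plate reader (PerkinElmer) or a Fluostar Omega Reader (BMG Labtech). The resulting data were analyzed with GraphPad PRISM v8.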

[3] = test system: PATU-8902 FKBP12^F36V-KRAS^G12V; KRAS^-/- clone; assay: Antiproliferation, PATU-8902 FKBP12F36V-KRASG12V; KRAS-/- clone, 3D-spheroid (CellTiter-Glo); settings: 120 h; for DMSO-normalized antiproliferation: FKBP12F36V-KRASG12V, KRAS-/-, 3D-spheroid
In short: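 Viability of cells grown as ultra-low adherent 3D-spheroids was determined with CellTiter-Glo (Promega). Luminescence readings were taken on an Envision 2104 plate reader (PerkinElmer) and a Fluostar Omega Reader (BMG Labtech), and the resulting data were processed in GraphPad PRISM v8 to assess effects on cell proliferation.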

[4] = test system: PATU-8902 LACZ-FKBP12^F36V clone; assay: Antiproliferation, PATU-8902 LACZ-FKBP12F36V clone, 2D-monolayer (CellTiter-Glo)
In short: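 Viability of cells grown as 2D-adherent monolayers was determined with the CellTiter-Glo luminescent reagent (Promega). Luminescence signals were read on either an Envision 2104 plate reader (PerkinElmer) or a Fluostar Omega Reader (BMG Labtech), and the resulting data were processed and analyzed in GraphPad PRISM v8 software.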

FKBP12^F36V-Nluc = target: T1, FKBP12^F36V-Nluc (Homo sapiens, UniProt P62942, F37V); assay: FKBP12F36V-Nluc dual luciferase assay (293FT); settings: 293FT, 24 h
T1 construct: expressed in transfected cells; host or cells: 293FT
In short: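 293FT cells expressing FKBP12^WT-Nluc or FKBP12^F36V-Nluc with Fluc were treated with compound for 24 h at 37 °C. Fluc, then Nluc, luminescence was read with Dual-Glo reagents. Values are DMSO-normalised Nluc/Fluc ratios.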

[5] = log10[compound] (M) -5.69897, replicate values
[6] = log10[compound] (M) -6.19897, replicate values
[7] = log10[compound] (M) -6.69897, replicate values
[8] = log10[compound] (M) -7.19897, replicate values
[9] = log10[compound] (M) -7.69897, replicate values
[10] = log10[compound] (M) -8.19897, replicate values
[11] = log10[compound] (M) -8.69897, replicate values
[12] = log10[compound] (M) -9.19897, replicate values
[13] = log10[compound] (M) -9.69897, replicate values
[14] = log10[compound] (M) -10.199, replicate values
[15] = log10[compound] (M) -5.69897, single replicates
[16] = log10[compound] (M) -6.19897, single replicates
[17] = log10[compound] (M) -6.69897, single replicates
[18] = log10[compound] (M) -7.19897, single replicates
[19] = log10[compound] (M) -7.69897, single replicates

T1 sequence (P62942 2-108 F37V limits assumed): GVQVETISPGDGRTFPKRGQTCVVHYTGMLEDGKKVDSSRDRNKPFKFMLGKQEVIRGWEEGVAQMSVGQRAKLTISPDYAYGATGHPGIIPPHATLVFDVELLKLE

## CC[C@H](C(=O)N1CCCC[C@H]1C(=O)O[C@H](CCc1ccc(OC)c(OC)c1)c1ccccc1OCC(=O)NCCCCCCC(=O)N[C@H](C(=O)N1C[C@H](O)C[C@H]1C(=O)N[C@@H](C)c1ccc(-c2scnc2C)cc1)C(C)(C)C)c1cc(OC)c(OC)c(OC)c1 [dTAG^V-1]
[1]; log10[compound] (M) -4.69897
  DMSO-normalized antiproliferation: 20.6105 and 17.3638 and 20.4315 and 22.7846
[1]; log10[compound] (M) -5.19897
  DMSO-normalized antiproliferation: 21.3993 and 17.4773 and 18.2 and 18.6602
[1]; log10[compound] (M) -5.69897
  DMSO-normalized antiproliferation: 16.8112 and 15.7934 and 16.8516 and 16.7935
[1]; [5]
  DMSO-normalized antiproliferation: 4.6597 and 4.418 and 4.149 and 3.87
[1]; log10[compound] (M) -6.19897
  DMSO-normalized antiproliferation: 20.0987 and 17.9241 and 20.6309 and 19.478
[1]; [6]
  DMSO-normalized antiproliferation: 5.446 and 5.94 and 6.406 and 4.294
[1]; log10[compound] (M) -6.69897
  DMSO-normalized antiproliferation: 25.9066 and 20.9075 and 21.5913 and 21.1711
[1]; [7]
  DMSO-normalized antiproliferation: 8.244 and 7.637 and 8.006 and 6.772
[1]; log10[compound] (M) -7.19897
  DMSO-normalized antiproliferation: 27.2696 and 25.1897 and 32.757 and 26.1725
[1]; [8]
  DMSO-normalized antiproliferation: 9.134 and 8.1 and 7.928 and 7.914
[1]; log10[compound] (M) -7.69897
  DMSO-normalized antiproliferation: 32.5281 and 28.8466 and 33.2484 and 29.8055
[1]; [9]
  DMSO-normalized antiproliferation: 23.295 and 23.6499 and 25.1438 and 20.7638
[1]; log10[compound] (M) -8.19897
  DMSO-normalized antiproliferation: 71.5602 and 70.7086 and 72.3533 and 72.4741
[1]; [10]
  DMSO-normalized antiproliferation: 58.7893 and 63.6738 and 62.8905 and 55.3819
[1]; log10[compound] (M) -8.69897
  DMSO-normalized antiproliferation: 90.0484 and 84.5598 and 93.7922 and 91.6223
[1]; [11]
  DMSO-normalized antiproliferation: 97.0333 and 109.013 and 119.265 and 75.6713
[1]; log10[compound] (M) -9.19897
  DMSO-normalized antiproliferation: 99.7014 and 102.892 and 91.8028 and 106.019
[1]; [12]
  DMSO-normalized antiproliferation: 104.958 and 110.142 and 126.275 and 110.446
[1]; [13]
  DMSO-normalized antiproliferation: 77.7582 and 88.137 and 113.958 and 92.6055
[1]; [14]
  DMSO-normalized antiproliferation: 96.7023 and 108.197 and 96.9121 and 90.9372
[2]; [15]
  DMSO-normalized antiproliferation: 79.9207 and 69.7647 and 81.656 and 63.0972
[2]; [16]
  DMSO-normalized antiproliferation: 90.8255 and 93.4576 and 97.8876 and 88.6015
[2]; [17]
  DMSO-normalized antiproliferation: 116.805 and 103.649 and 110.913 and 111.967
[2]; [18]
  DMSO-normalized antiproliferation: 115.092 and 118.114 and 123.495 and 124.235
[2]; [19]
  DMSO-normalized antiproliferation: 125.383 and 125.544 and 131.956 and 99.7395
[2]; log10[compound] (M) -8.19897, single replicates
  DMSO-normalized antiproliferation: 91.6326 and 122.778 and 124.271 and 121.832
[2]; log10[compound] (M) -8.69897, single replicates
  DMSO-normalized antiproliferation: 107.048 and 111.088 and 112.061 and 114.671
[2]; log10[compound] (M) -9.19897, single replicates
  DMSO-normalized antiproliferation: 123.177 and 113.909 and 103.784 and 113.953
[2]; log10[compound] (M) -9.69897, single replicates
  DMSO-normalized antiproliferation: 118.276 and 100.412 and 114.859 and 101.744
[2]; log10[compound] (M) -10.199, single replicates
  DMSO-normalized antiproliferation: 96.4797 and 95.686 and 104.084 and 100.448
[3]; 2D-monolayer and 3D-spheroid cultures
  Cell proliferation upon FKBP12F36V-KRASG12V degradation: diminished cell proliferation
[3]; [15]
  DMSO-normalized antiproliferation: 14.2222 and 15.5085 and 18.1313 and 19.3564
[3]; [16]
  DMSO-normalized antiproliferation: 19.4455 and 15.9874 and 15.9651 and 15.7814
[3]; [17]
  DMSO-normalized antiproliferation: 16.8171 and 16.5888 and 12.056 and 15.8705
[3]; [18]
  DMSO-normalized antiproliferation: 11.0759 and 11.8444 and 17.6524 and 14.6677
[3]; [19]
  DMSO-normalized antiproliferation: 20.7875 and 17.3072 and 22.4693 and 16.2436
[4]; [5]
  DMSO-normalized antiproliferation: 35.4292 and 29.4521 and 35.0517 and 31.6104
[4]; [6]
  DMSO-normalized antiproliferation: 87.2455 and 81.8203 and 77.0995 and 64.2664
[4]; log10[compound] (M) -6.69897
  DMSO-normalized antiproliferation: 102.668 and 99.5089 and 89.7578 and 106.231
[4]; [7]
  DMSO-normalized antiproliferation: 124.825 and 81.8259 and 133.331 and 119.877
[4]; log10[compound] (M) -7.19897
  DMSO-normalized antiproliferation: 90.1193 and 111.795 and 91.2446 and 98.3924
[4]; [8]
  DMSO-normalized antiproliferation: 118.009 and 93.8067 and 130.572 and 123.376
[4]; log10[compound] (M) -7.69897
  DMSO-normalized antiproliferation: 112.909 and 117.897 and 108.192 and 99.266
[4]; [9]
  DMSO-normalized antiproliferation: 133.195 and 132.373 and 134.672 and 120.383
[4]; log10[compound] (M) -8.19897
  DMSO-normalized antiproliferation: 101.415 and 100.309 and 97.138 and 102.461
[4]; [10]
  DMSO-normalized antiproliferation: 136.88 and 106.56 and 99.7166 and 163.283
[4]; log10[compound] (M) -8.69897
  DMSO-normalized antiproliferation: 103.413 and 90.0724 and 92.9073 and 97.9489
[4]; [11]
  DMSO-normalized antiproliferation: 148.548 and 115.202 and 143.359 and 119.836
[4]; [12]
  DMSO-normalized antiproliferation: 116.491 and 96.4785 and 115.962 and 80.4138
[4]; [13]
  DMSO-normalized antiproliferation: 139.57 and 103.845 and 96.4961 and 122.632
[4]; [14]
  DMSO-normalized antiproliferation: 133.817 and 113.621 and 96.1958 and 88.4566
FKBP12^F36V-Nluc
  Degradation of FKBP12F36V-Nluc (in words): potent degradation

Source: paper PMC7501296, “Rapid and direct control of target protein levels with VHL-recruiting dTAG molecules” (Nature Communications, 2020)
